Source: patent US7981903B2, “2-[2-{phenylamino}-1H-pyrrolo[2,3-D]pyrimidin-4-yl)amino] benzamide derivatives as IGF-1R inhibitors for the treatment of cancer” (GlaxoSmithKline LLC, priority 2007, dated 2011)

Experiments:
Type in all cases: cell-based
NCI-H929 = experiment: Inhibition of cell proliferation (CellTiter-Glo or InCell analyzer), NCI-H929; conditions: Homo sapiens, 72 h / 3 days, values given as IC50 category
Summary of the method: In one

Colo205 = experiment: Inhibition of cell proliferation (CellTiter-Glo or InCell analyzer), Colo205; conditions: Homo sapiens, COLO 205, 72 h / 3 days, values given as IC50 category
Summary of the method: In one

[1] = molecular target: T1, NIH-3T3 cells overexpressing human IR (Homo sapiens, UniProt P06213); experiment: IR cellular autophosphorylation (DELFIA); conditions: 2 h compound, insulin 3 ug/ml for 15 minutes, IC50 category
T1 construct: expressed in transfected cells; host or cells: NIH-3T3 (mouse fibroblasts)
T1 sequence (P06213 28-1382): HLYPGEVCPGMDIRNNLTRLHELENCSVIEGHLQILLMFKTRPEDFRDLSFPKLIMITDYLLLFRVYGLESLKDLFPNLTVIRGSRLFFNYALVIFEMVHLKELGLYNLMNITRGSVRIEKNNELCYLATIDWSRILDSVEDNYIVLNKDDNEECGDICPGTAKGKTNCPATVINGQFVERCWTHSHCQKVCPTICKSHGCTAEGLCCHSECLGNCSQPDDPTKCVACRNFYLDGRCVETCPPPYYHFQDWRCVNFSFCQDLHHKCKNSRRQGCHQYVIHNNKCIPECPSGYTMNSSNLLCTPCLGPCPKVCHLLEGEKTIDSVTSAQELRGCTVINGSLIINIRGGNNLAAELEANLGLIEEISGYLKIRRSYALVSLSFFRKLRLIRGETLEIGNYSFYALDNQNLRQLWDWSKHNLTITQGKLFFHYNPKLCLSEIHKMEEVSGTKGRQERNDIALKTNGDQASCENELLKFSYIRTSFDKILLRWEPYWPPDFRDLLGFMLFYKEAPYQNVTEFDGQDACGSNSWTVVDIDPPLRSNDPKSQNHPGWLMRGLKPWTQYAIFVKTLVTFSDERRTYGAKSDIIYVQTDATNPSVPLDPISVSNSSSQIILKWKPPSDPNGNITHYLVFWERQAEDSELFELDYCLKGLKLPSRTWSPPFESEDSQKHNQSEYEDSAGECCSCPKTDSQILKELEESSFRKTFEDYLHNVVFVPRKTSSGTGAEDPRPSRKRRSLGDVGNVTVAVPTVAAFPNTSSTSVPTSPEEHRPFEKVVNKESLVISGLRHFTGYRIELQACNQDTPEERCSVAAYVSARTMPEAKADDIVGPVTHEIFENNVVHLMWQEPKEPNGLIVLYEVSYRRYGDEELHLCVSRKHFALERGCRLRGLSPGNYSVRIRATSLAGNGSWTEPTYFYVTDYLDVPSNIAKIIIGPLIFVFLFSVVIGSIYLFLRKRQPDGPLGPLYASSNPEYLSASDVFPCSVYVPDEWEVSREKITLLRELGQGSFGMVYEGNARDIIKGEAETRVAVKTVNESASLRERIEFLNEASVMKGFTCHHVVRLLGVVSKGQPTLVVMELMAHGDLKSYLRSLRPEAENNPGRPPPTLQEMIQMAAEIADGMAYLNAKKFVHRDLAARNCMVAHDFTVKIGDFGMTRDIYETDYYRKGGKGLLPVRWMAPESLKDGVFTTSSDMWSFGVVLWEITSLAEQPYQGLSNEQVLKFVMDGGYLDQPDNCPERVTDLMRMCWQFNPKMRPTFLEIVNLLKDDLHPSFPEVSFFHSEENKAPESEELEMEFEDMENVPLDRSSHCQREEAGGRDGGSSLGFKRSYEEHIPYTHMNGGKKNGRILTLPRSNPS
Summary of the method: (§1)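 Receptor autophosphorylation measured by DELFIA, capturing IGF-1R or IRβ and detecting with europium anti-pTyr, reported as percent of IGF-1- or insulin-stimulated signal. Compounds (30 uM to 1.5 nM) added 2 h before ligand, then 15 min stimulation (IGF-1 30 ng/ml or insulin 3 ug/ml).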

[2] = molecular target: T2, NIH-3T3 cells overexpressing human IGF-1R (Homo sapiens, UniProt P08069); experiment: IGF-1R cellular autophosphorylation (DELFIA)
T2 construct: expressed in transfected cells; host or cells: NIH-3T3 (mouse fibroblasts)
T2 sequence (P08069 31-1367): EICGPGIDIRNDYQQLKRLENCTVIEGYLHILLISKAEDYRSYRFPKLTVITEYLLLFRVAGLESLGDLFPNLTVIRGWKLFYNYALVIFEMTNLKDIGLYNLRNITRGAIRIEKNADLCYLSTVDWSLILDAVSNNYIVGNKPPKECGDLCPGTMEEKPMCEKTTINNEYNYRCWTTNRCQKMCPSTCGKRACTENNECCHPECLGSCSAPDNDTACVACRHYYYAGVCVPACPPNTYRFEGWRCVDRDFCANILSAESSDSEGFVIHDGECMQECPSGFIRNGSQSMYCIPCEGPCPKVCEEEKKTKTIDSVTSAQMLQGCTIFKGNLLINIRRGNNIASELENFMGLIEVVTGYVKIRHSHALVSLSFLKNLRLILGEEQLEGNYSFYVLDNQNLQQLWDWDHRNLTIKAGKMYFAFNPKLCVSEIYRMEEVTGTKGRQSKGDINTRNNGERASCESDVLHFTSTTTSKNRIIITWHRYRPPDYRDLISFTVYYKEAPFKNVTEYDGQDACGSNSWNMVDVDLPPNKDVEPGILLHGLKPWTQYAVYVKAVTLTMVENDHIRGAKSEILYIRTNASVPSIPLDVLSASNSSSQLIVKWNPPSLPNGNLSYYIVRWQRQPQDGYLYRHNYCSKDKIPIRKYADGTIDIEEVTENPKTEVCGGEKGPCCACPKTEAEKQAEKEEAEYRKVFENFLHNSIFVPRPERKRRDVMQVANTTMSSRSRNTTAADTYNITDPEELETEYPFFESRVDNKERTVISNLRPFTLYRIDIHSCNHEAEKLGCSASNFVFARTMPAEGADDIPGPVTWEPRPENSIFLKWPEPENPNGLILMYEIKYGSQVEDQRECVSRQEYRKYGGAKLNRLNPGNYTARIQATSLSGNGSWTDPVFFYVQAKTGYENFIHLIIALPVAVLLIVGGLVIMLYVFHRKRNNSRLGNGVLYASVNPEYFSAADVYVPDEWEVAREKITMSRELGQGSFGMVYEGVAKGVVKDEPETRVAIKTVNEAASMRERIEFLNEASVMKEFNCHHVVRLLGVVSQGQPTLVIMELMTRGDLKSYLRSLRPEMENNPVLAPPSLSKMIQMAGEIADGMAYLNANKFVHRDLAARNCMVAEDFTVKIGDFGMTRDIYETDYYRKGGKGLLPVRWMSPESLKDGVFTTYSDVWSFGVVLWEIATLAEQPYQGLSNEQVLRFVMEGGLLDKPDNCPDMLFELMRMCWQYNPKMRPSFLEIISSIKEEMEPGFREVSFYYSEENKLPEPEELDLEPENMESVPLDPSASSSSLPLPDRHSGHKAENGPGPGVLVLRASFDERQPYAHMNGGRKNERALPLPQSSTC
Summary of the method: as §1

Structure (SMILES) | IC50 (NCI-H929) [µM] | IC50 (Colo205) [µM] | IC50 [1] [µM] | IC50 [2] [µM]
CNC(=O)c1c(F)cccc1Nc1nc(Nc2cc3c(cc2OC)CCN3C(C)=O)nc2[nH]ccc12 [Example 135, 2-[(2-{[1-acetyl-5-(methyloxy)-2,3-dihydro-1H-indol-6-yl]amino}-1H-pyrrolo[2,3-d]pyrimidin-4-yl)amino]-6-fluoro-N-methylbenzamide] | 0.25 to 1 | > 1 | > 0.5 | > 0.5
COc1cc2c(cc1Nc1nc(Nc3cccc(F)c3C(N)=O)c3cc[nH]c3n1)NCC2 [Example 140, 2-fluoro-6-[(2-{[5-(methyloxy)-2,3-dihydro-1H-indol-6-yl]amino}-1H-pyrrolo[2,3-d]pyrimidin-4-yl)amino]benzamide] | > 1 | 0.25 to 1 | > 0.5 | > 0.5
COc1cc2c(cc1Nc1nc(Nc3cccc(F)c3C(N)=O)c3cc[nH]c3n1)N(C(=O)CN(C)OC)CC2 [Example 144, 2-fluoro-6-[(2-{[1-[N-methyl-N-(methyloxy)glycyl]-5-(methyloxy)-2,3-dihydro-1H-indol-6-yl]amino}-1H-pyrrolo[2,3-d]pyrimidin-4-yl)amino]benzamide] | 0.25 to 1 | > 1 | > 0.5 | > 0.5
COc1cc2c(cc1Nc1nc(Nc3cccc(F)c3C(N)=O)c3cc[nH]c3n1)N(C(=O)Cn1ccnc1)CC2 [Example 145, 2-fluoro-6-[(2-{[1-(1H-imidazol-1-ylacetyl)-5-(methyloxy)-2,3-dihydro-1H-indol-6-yl]amino}-1H-pyrrolo[2,3-d]pyrimidin-4-yl)amino]benzamide] | > 1 | > 1 | > 0.5 | > 0.5
COc1cc2c(cc1Nc1nc(Nc3cccc(F)c3C(N)=O)c3cc[nH]c3n1)N(C(=O)N(C)C)CC2 [Example 146, 6-[(4-{[2-(aminocarbonyl)-3-fluorophenyl]amino}-1H-pyrrolo[2,3-d]pyrimidin-2-yl)amino]-N,N-dimethyl-5-(methyloxy)-2,3-dihydro-1H-indole-1-carboxamide] | 0.25 to 1 | > 1 | > 0.5 | > 0.5
COCC(=O)N1CCc2cc(OC)c(Nc3nc(Nc4cccc(F)c4C(N)=O)c4cc[nH]c4n3)cc21 [Example 149, 2-fluoro-6-{[2-({5-(methyloxy)-1-[(methyloxy)acetyl]-2,3-dihydro-1H-indol-6-yl}amino)-1H-pyrrolo[2,3-d]pyrimidin-4-yl]amino}benzamide] | 0.25 to 1 | > 1 | 0.1 to 0.5 | 0.1 to 0.5
CNC(=O)c1c(F)cccc1Nc1nc(Nc2cc3c(cc2OC)CCN3C(=O)COC)nc2[nH]ccc12 [Example 150, 2-fluoro-N-methyl-6-{[2-({5-(methyloxy)-1-[(methyloxy)acetyl]-2,3-dihydro-1H-indol-6-yl}amino)-1H-pyrrolo[2,3-d]pyrimidin-4-yl]amino}benzamide] | 0.25 to 1 | > 1 | > 0.5 | > 0.5
CCNC(=O)c1c(F)cc(F)cc1Nc1nc(Nc2cc3c(cc2OC)CCN3C(=O)CN(C)C)nc2[nH]ccc12 [Example 151, 2-[(2-{[1-(N,N-dimethylglycyl)-5-(methyloxy)-2,3-dihydro-1H-indol-6-yl]amino}-1H-pyrrolo[2,3-d]pyrimidin-4-yl)amino]-N-ethyl-4,6-difluorobenzamide] | 0.25 to 1 | 0.25 to 1 | 0.1 to 0.5 | 0.1 to 0.5
CCCNC(=O)c1c(F)cc(F)cc1Nc1nc(Nc2cc3c(cc2OC)CCN3C(=O)CN(C)C)nc2[nH]ccc12 [Example 152, 2-[(2-{[1-(N,N-dimethylglycyl)-5-(methyloxy)-2,3-dihydro-1H-indol-6-yl]amino}-1H-pyrrolo[2,3-d]pyrimidin-4-yl)amino]-4,6-difluoro-N-propylbenzamide] | 0.25 to 1 | 0.25 to 1 | 0.1 to 0.5 | 0.1 to 0.5
COc1cc2c(cc1Nc1nc(Nc3ccc(F)c(F)c3C(=O)NC(C)C)c3cc[nH]c3n1)N(C(=O)CN(C)C)CC2 [Example 161, 6-[(2-{[1-(N,N-dimethylglycyl)-5-(methyloxy)-2,3-dihydro-1H-indol-6-yl]amino}-1H-pyrrolo[2,3-d]pyrimidin-4-yl)amino]-2,3-difluoro-N-(1-methylethyl)benzamide] | 0.25 to 1 | > 1 | > 0.5 | 0.1 to 0.5
CCN(C)CC(=O)N1CCc2cc(OC)c(Nc3nc(Nc4cccc(F)c4C(=O)NC)c4cc[nH]c4n3)cc21 [Example 165, 2-[(2-{[1-(N-ethyl-N-methylglycyl)-5-(methyloxy)-2,3-dihydro-1H-indol-6-yl]amino}-1H-pyrrolo[2,3-d]pyrimidin-4-yl)amino]-6-fluoro-N-methylbenzamide] | 0.25 to 1 | > 1 | 0.1 to 0.5 | 0.1 to 0.5
CNC(=O)c1c(F)cc(F)cc1Nc1nc(Nc2cc3c(cc2OC)CCCN3C(=O)CN(C)C)nc2[nH]ccc12 [Example 179, 2-[(2-{[1-(N,N-dimethylglycyl)-6-(methyloxy)-1,2,3,4-tetrahydro-7-quinolinyl]amino}-1H-pyrrolo[2,3-d]pyrimidin-4-yl)amino]-4,6-difluoro-N-methylbenzamide] | < 0.25 | < 0.25 | < 0.1 | < 0.1
CCNC(=O)c1c(F)cc(F)cc1Nc1nc(Nc2cc3c(cc2OC)CCCN3C(=O)CN(C)C)nc2[nH]ccc12 [Example 180, 2-[(2-{[1-(N,N-dimethylglycyl)-6-(methyloxy)-1,2,3,4-tetrahydro-7-quinolinyl]amino}-1H-pyrrolo[2,3-d]pyrimidin-4-yl)amino]-N-ethyl-4,6-difluorobenzamide] | 0.25 to 1 | 0.25 to 1 | < 0.1 | < 0.1

Second part, the compound after the results:

IC50 (NCI-H929) [µM] | IC50 (Colo205) [µM] | IC50 [1] [µM] | IC50 [2] [µM] | Structure (SMILES)
< 0.25 | 0.25 to 1 | 0.1 to 0.5 | 0.1 to 0.5 | CNC(=O)c1cc2ccccc2cc1Nc1nc(Nc2cc3c(cc2OC)CCN3C(=O)CN(C)C)nc2[nH]ccc12 [Example 125, 3-[(2-{[1-(N,N-dimethylglycyl)-5-(methyloxy)-2,3-dihydro-1H-indol-6-yl]amino}-1H-pyrrolo[2,3-d]pyrimidin-4-yl)amino]-N-methyl-2-naphthalenecarboxamide]
< 0.25 | < 0.25 | < 0.1 | < 0.1 | CCN(C)CC(=O)N1CCCc2cc(OC)c(Nc3nc(Nc4cccc(F)c4C(=O)NC)c4cc[nH]c4n3)cc21 [Example 132, 2-[(2{-[1-(N-ethyl-N-methylglycyl)-6-(methyloxy)-1,2,3,4-tetrahydro-7-quinolinyl]amino}-1H-pyrrolo[2,3-d]pyrimidin-4-yl)amino]-6-fluoro-N-methylbenzamide]
< 0.25 | 0.25 to 1 | < 0.1 | 0.1 to 0.5 | COc1cc2c(cc1Nc1nc(Nc3cccc(F)c3C(N)=O)c3cc[nH]c3n1)N(C(C)=O)CC2 [Example 134, 2-[(2-{[1-acetyl-5-(methyloxy)-2,3-dihydro-1H-indol-6-yl]amino}-1H-pyrrolo[2,3-d]pyrimidin-4-yl)amino]-6-fluorobenzamide]
< 0.25 | 0.25 to 1 | 0.1 to 0.5 | 0.1 to 0.5 | CCN(CC)CC(=O)N1CCc2cc(OC)c(Nc3nc(Nc4cccc(F)c4C(=O)NC)c4cc[nH]c4n3)cc21 [Example 137, 2-[(2-{[1-(N,N-diethylglycyl)-5-(methyloxy)-2,3-dihydro-1H-indol-6-yl]amino}-1H-pyrrolo[2,3-d]pyrimidin-4-yl)amino]-6-fluoro-N-methylbenzamide]
< 0.25 | 0.25 to 1 | 0.1 to 0.5 | 0.1 to 0.5 | COc1cc2c(cc1Nc1nc(Nc3cccc(F)c3C(N)=O)c3cc[nH]c3n1)N(C(=O)CN1CCC1)CC2 [Example 143, 2-[(2-{[1-(1-azetidinylacetyl)-5-(methyloxy)-2,3-dihydro-1H-indol-6-yl]amino}-1H-pyrrolo[2,3-d]pyrimidin-4-yl)amino]-6-fluorobenzamide]
< 0.25 | 0.25 to 1 | 0.1 to 0.5 | 0.1 to 0.5 | COc1cc2c(cc1Nc1nc(Nc3cccc(F)c3C(N)=O)c3cc[nH]c3n1)N(C(=O)[C@@H]1CCCN1C)CC2 [Example 147, 2-fluoro-6-[(2-{[5-(methyloxy)-1-(1-methyl-L-prolyl)-2,3-dihydro-1H-indol-6-yl]amino}-1H-pyrrolo[2,3-d]pyrimidin-4-yl)amino]benzamide]
< 0.25 | < 0.25 | < 0.1 | < 0.1 | CCCN(C)CC(=O)N1CCc2cc(OC)c(Nc3nc(Nc4cccc(F)c4C(N)=O)c4cc[nH]c4n3)cc21 [Example 168, 2-fluoro-6-[(2-{[5-(methyloxy)-1-(N-methyl-N-propylglycyl)-2,3-dihydro-1H-indol-6-yl]amino}-1H-pyrrolo[2,3-d]pyrimidin-4-yl)amino]benzamide]
< 0.25 | 0.25 to 1 | < 0.1 | < 0.1 | COc1cc2c(cc1Nc1nc(Nc3cc(Cl)cc(F)c3C(N)=O)c3cc[nH]c3n1)N(C(=O)CN1CCCC1)CC2 [Example 175, 4-chloro-2-fluoro-6-[(2-{[5-(methyloxy)-1-(1-pyrrolidinylacetyl)-2,3-dihydro-1H-indol-6-yl]amino}-1H-pyrrolo[2,3-d]pyrimidin-4-yl)amino]benzamide]
< 0.25 | < 0.25 | < 0.1 | < 0.1 | COc1cc2c(cc1Nc1nc(Nc3cc(F)cc(F)c3C(N)=O)c3cc[nH]c3n1)N(C(=O)CN(C)C)CCC2 [Example 178, 2-[(2-{[1-(N,N-dimethylglycyl)-6-(methyloxy)-1,2,3,4-tetrahydro-7-quinolinyl]amino}-1H-pyrrolo[2,3-d]pyrimidin-4-yl)amino]-4,6-difluorobenzamide]
